Experimental data published in ChEMBL document CHEMBL2375306, “Antimicrobial peptides containing unnatural amino acid exhibit potent bactericidal activity against ESKAPE pathogens” (Bioorg Med Chem, 2013).
≈ marks a conversion by molar mass, not a printed value. Numbered stars: 1 amine (or outer) side, 2 acyl side, 3 side chain; on linkers, the order of the positions; unused ones are H or OH. Square brackets hold non-standard residues; d marks the D form. Peptide text beside a SMILES is read from it. * marks the point of attachment. ξ: configuration not given here. Pro(3ξ,4ξ-(CH2)4) = O=C(O)[C@H]1NCC2CCCCC21; Ethylenediamine = C(CN[*:2])N[*:1]; Tic = O=C(O)[C@@H]1Cc2ccccc2CN1; X1 = CC(=O)NC(=O)[C@H](CN)N*; Dap = NC[C@H](N)C(=O)O; GABA = NCCCC(=O)O

How the values were obtained:
Assay type in all cases: functional
[1] = test system: Pseudomonas aeruginosa; test: Antibacterial activity against Pseudomonas aeruginosa PAO1 after 24 hrs by broth microdilution method; conditions: PAO1, 24 h
[2] = test system: Staphylococcus aureus; test: Antibacterial activity against methicillin-sensitive Staphylococcus aureus UAMS-1 after 24 hrs by broth microdilution method; conditions: UAMS-1, 24 h
[3] = test system: Acinetobacter baumannii; test: Antibacterial activity against Acinetobacter baumannii WRAIR clinical isolate 13 after 24 hrs by broth microdilution method; conditions: WRAIR clinical isolate 13, 24 h
[4] = test system: Klebsiella aerogenes; test: Antibacterial activity against Enterobacter aerogenes after 24 hrs by broth microdilution method
[5] = test system: Enterococcus faecium; test: Antibacterial activity against Enterococcus faecium MMC4 after 24 hrs by broth microdilution method; conditions: MMC4, 24 h
[6] = test system: Klebsiella pneumoniae; test: Antibacterial activity against Klebsiella pneumoniae BAMS clinical isolate 07-18 after 24 hrs by broth microdilution method; conditions: BAMS clinical isolate 07-18, 24 h

Structure (SMILES) | MIC [1] [µg/mL] | MIC [2] [µg/mL] | MIC [3] [µg/mL] | MIC [4] [µg/mL] | MIC [5] [µg/mL] | MIC [6] [µg/mL] | MBC [1] [µg/mL] | MBC [2] [µg/mL] | MBC [3] [µg/mL] | MBC [4] [µg/mL] | MBC [5] [µg/mL] | MBC [6] [µg/mL]
CC(=O)NCC(=O)N[C@@H](Cc1ccccc1)C(=O)N1Cc2ccccc2C[C@H]1C(=O)N1CC2CCCCC2[C@H]1C(=O)NCC(=O)N[C@@H](CCCCN)C(=O)N1Cc2ccccc2C[C@H]1C(=O)N1CC2CCCCC2[C@H]1C(=O)NCC(=O)N[C@@H](Cc1ccccc1)C(=O)N1Cc2ccccc2C[C@H]1C(=O)N1CC2CCCCC2[C@H]1C(=O)NCC(=O)N[C@@H](CCCCN)C(=O)N1Cc2ccccc2C[C@H]1C(=O)N[C@@H](CCCCN)C(=O)N[C@@H](CCCCN)C(=O)N[C@@H](CCCCN)C(=O)N[C@@H](CCCCN)C(=O)NCCN (stereo partly drawn) (Ac-GF[Tic][Pro(3ξ,4ξ-(CH2)4)]GK[Tic][Pro(3ξ,4ξ-(CH2)4)]GF[Tic][Pro(3ξ,4ξ-(CH2)4)]GK[Tic]KKKK-Ethylenediamine) | 50 (≈ 20.1 µM) | 50 (≈ 20.1 µM) | 6.25 (≈ 2.52 µM) | 50 (≈ 20.1 µM) | 12.5 (≈ 5.03 µM) | 25 (≈ 10.1 µM) | 100 (≈ 40.3 µM) | > 100 | 6.25 (≈ 2.52 µM) | 50 (≈ 20.1 µM) | 25 (≈ 10.1 µM) | 50 (≈ 20.1 µM)
CC(=O)NCC(=O)N[C@@H](Cc1ccccc1)C(=O)N1Cc2ccccc2C[C@H]1C(=O)N1CC2CCCCC2[C@H]1C(=O)NCC(=O)N[C@@H](CCCCN)C(=O)N1Cc2ccccc2C[C@H]1C(=O)N1CC2CCCCC2[C@H]1C(=O)NCC(=O)N[C@@H](Cc1ccccc1)C(=O)N1Cc2ccccc2C[C@H]1C(=O)N1CC2CCCCC2[C@H]1C(=O)NCC(=O)N[C@@H](CCCCN)C(=O)N1Cc2ccccc2C[C@H]1C(=O)N[C@@H](CCCCN)C(=O)N[C@@H](CCCCN)C(=O)N[C@@H](CCCCN)C(N)=O (stereo partly drawn) (Ac-GF[Tic][Pro(3ξ,4ξ-(CH2)4)]GK[Tic][Pro(3ξ,4ξ-(CH2)4)]GF[Tic][Pro(3ξ,4ξ-(CH2)4)]GK[Tic]KKK-NH2) | > 100 | 100 (≈ 43.2 µM) | 12.5 (≈ 5.4 µM) | > 100 | 25 (≈ 10.8 µM) | 100 (≈ 43.2 µM) | > 100 | > 100 | 50 (≈ 21.6 µM) | > 100 | 100 (≈ 43.2 µM) | > 100
CC(=O)NCCCC(=O)N[C@@H](Cc1ccccc1)C(=O)N1Cc2ccccc2C[C@H]1C(=O)N1CC2CCCCC2[C@H]1C(=O)NCCCC(=O)N[C@@H](CCCCN)C(=O)N1Cc2ccccc2C[C@H]1C(=O)N1CC2CCCCC2[C@H]1C(=O)NCCCC(=O)N[C@@H](Cc1ccccc1)C(=O)N1Cc2ccccc2C[C@H]1C(=O)N1CC2CCCCC2[C@H]1C(=O)NCCCC(=O)N[C@@H](CCCCN)C(=O)N1Cc2ccccc2C[C@H]1C(=O)N[C@@H](CCCCN)C(=O)N[C@@H](CCCCN)C(=O)N[C@@H](CCCCN)C(=O)N[C@@H](CCCCN)C(N)=O (stereo partly drawn) (Ac-[GABA]F[Tic][Pro(3ξ,4ξ-(CH2)4)][GABA]K[Tic][Pro(3ξ,4ξ-(CH2)4)][GABA]F[Tic][Pro(3ξ,4ξ-(CH2)4)][GABA]K[Tic]KKKK-NH2) | > 100 | > 100 | 12.5 (≈ 4.9 µM) | > 100 | 12.5 (≈ 4.9 µM) | 100 (≈ 39.2 µM) | > 100 | > 100 | 25 (≈ 9.79 µM) | > 100 | 25 (≈ 9.79 µM) | 100 (≈ 39.2 µM)
CC(C)C[C@H](NC(=O)[C@@H](N)CCCCN)C(=O)N1Cc2ccccc2C[C@H]1C(=O)N1CC2CCCCC2[C@H]1C(=O)N[C@@H](CCCCN)C(=O)N1Cc2ccccc2C[C@H]1C(=O)N1CC2CCCCC2[C@H]1C(=O)NC(=O)CN[C@@H](Cc1ccccc1)C(=O)N1Cc2ccccc2C[C@H]1C(=O)N1CC2CCCCC2[C@H]1C(=O)N[C@@H](CCCCN)C(=O)N1Cc2ccccc2C[C@H]1C(=O)N1CC2CCCCC2[C@H]1C(=O)NC(=O)CN[C@@H](Cc1ccccc1)C(=O)N1Cc2ccccc2C[C@H]1C(=O)N1CC2CCCCC2[C@H]1C(=O)N[C@@H](CCCCN)C(=O)N1Cc2ccccc2C[C@H]1C(=O)N1CC2CCCCC2[C@H]1C(=O)N[C@@H](CCCCN)C(=O)N[C@@H](CCCCN)C(=O)N[C@@H](CCCCN)C(=O)N[C@@H](CCCCN)C(N)=O (stereo partly drawn) | 50 (≈ 14.6 µM) | 50 (≈ 14.6 µM) | 25 (≈ 7.3 µM) | > 100 | 6.25 (≈ 1.82 µM) | > 100 | 50 (≈ 14.6 µM) | 50 (≈ 14.6 µM) | 100 (≈ 29.2 µM) | > 100 | 25 (≈ 7.3 µM) | 100 (≈ 29.2 µM)
CC(=O)NCC(=O)N[C@@H](Cc1ccccc1)C(=O)N1Cc2ccccc2C[C@H]1C(=O)N1CC2CCCCC2[C@H]1C(=O)NCC(=O)N[C@@H](CN)C(=O)N1Cc2ccccc2C[C@H]1C(=O)N1CC2CCCCC2[C@H]1C(=O)NCC(=O)N[C@@H](Cc1ccccc1)C(=O)N1Cc2ccccc2C[C@H]1C(=O)N1CC2CCCCC2[C@H]1C(=O)NCC(=O)N[C@@H](CN)C(=O)N1Cc2ccccc2C[C@H]1C(=O)N[C@@H](CN)C(=O)N[C@@H](CN)C(=O)N[C@@H](CN)C(=O)N[C@@H](CN)C(=O)NC(C)=O (stereo partly drawn) (Ac-GF[Tic][Pro(3ξ,4ξ-(CH2)4)]G[Dap][Tic][Pro(3ξ,4ξ-(CH2)4)]GF[Tic][Pro(3ξ,4ξ-(CH2)4)]G[Dap][Tic][Dap][Dap][Dap]-X1) | 25 (≈ 11.2 µM) | > 100 | 12.5 (≈ 5.6 µM) | 50 (≈ 22.4 µM) | 50 (≈ 22.4 µM) | 12.5 (≈ 5.6 µM) | 25 (≈ 11.2 µM) | 100 (≈ 44.8 µM) | 12.5 (≈ 5.6 µM) | 50 (≈ 22.4 µM) | 100 (≈ 44.8 µM) | 25 (≈ 11.2 µM)

Continued, in another order:

MIC [1] [µg/mL] | MIC [2] [µg/mL] | MIC [3] [µg/mL] | MIC [4] [µg/mL] | MIC [5] [µg/mL] | MIC [6] [µg/mL] | Structure (SMILES) | MBC [1] [µg/mL] | MBC [2] [µg/mL] | MBC [3] [µg/mL] | MBC [4] [µg/mL] | MBC [5] [µg/mL] | MBC [6] [µg/mL]
50 (≈ 16.8 µM) | 50 (≈ 16.8 µM) | 12.5 (≈ 4.2 µM) | 100 (≈ 33.6 µM) | 12.5 (≈ 4.2 µM) | 100 (≈ 33.6 µM) | CC(C)C[C@H](NC(=O)[C@@H](N)CN)C(=O)N1Cc2ccccc2C[C@H]1C(=O)N1CC2CCCCC2[C@H]1C(=O)N[C@@H](CN)C(=O)N1Cc2ccccc2C[C@H]1C(=O)N1CC2CCCCC2[C@H]1C(=O)N[C@@H](Cc1ccccc1)C(=O)N1Cc2ccccc2C[C@H]1C(=O)N1CC2CCCCC2[C@H]1C(=O)N[C@@H](CN)C(=O)N1Cc2ccccc2C[C@H]1C(=O)N1CC2CCCCC2[C@H]1C(=O)N[C@@H](Cc1ccccc1)C(=O)N1Cc2ccccc2C[C@H]1C(=O)N1CC2CCCCC2[C@H]1C(=O)N[C@@H](CN)C(=O)N1Cc2ccccc2C[C@H]1C(=O)N1CC2CCCCC2[C@H]1C(=O)N[C@@H](CN)C(=O)N[C@@H](CN)C(=O)N[C@@H](CN)C(=O)N[C@@H](CN)C(N)=O (stereo partly drawn) (H-[Dap]L[Tic][Pro(3ξ,4ξ-(CH2)4)][Dap][Tic][Pro(3ξ,4ξ-(CH2)4)]F[Tic][Pro(3ξ,4ξ-(CH2)4)][Dap][Tic][Pro(3ξ,4ξ-(CH2)4)]F[Tic][Pro(3ξ,4ξ-(CH2)4)][Dap][Tic][Pro(3ξ,4ξ-(CH2)4)][Dap][Dap][Dap][Dap]-NH2) | 100 (≈ 33.6 µM) | 100 (≈ 33.6 µM) | 50 (≈ 16.8 µM) | 100 (≈ 33.6 µM) | 25 (≈ 8.4 µM) | 100 (≈ 33.6 µM)
> 100 | 50 (≈ 14.9 µM) | 100 (≈ 29.8 µM) | > 100 | 12.5 (≈ 3.73 µM) | > 100 | CC(=O)N[C@@H](CCCCN)C(=O)N[C@@H](CC(C)C)C(=O)N1Cc2ccccc2C[C@H]1C(=O)N1CC2CCCCC2[C@H]1C(=O)N[C@@H](CCCCN)C(=O)N1Cc2ccccc2C[C@H]1C(=O)N1CC2CCCCC2[C@H]1C(=O)N[C@@H](Cc1ccccc1)C(=O)N1Cc2ccccc2C[C@H]1C(=O)N1CC2CCCCC2[C@H]1C(=O)N[C@@H](CCCCN)C(=O)N1Cc2ccccc2C[C@H]1C(=O)N1CC2CCCCC2[C@H]1C(=O)N[C@@H](Cc1ccccc1)C(=O)N1Cc2ccccc2C[C@H]1C(=O)N1CC2CCCCC2[C@H]1C(=O)N[C@@H](CCCCN)C(=O)N1Cc2ccccc2C[C@H]1C(=O)N1CC2CCCCC2[C@H]1C(=O)N[C@@H](CCCCN)C(=O)N[C@@H](CCCCN)C(=O)N[C@@H](CCCCN)C(=O)N[C@@H](CCCCN)C(N)=O (stereo partly drawn) (Ac-KL[Tic][Pro(3ξ,4ξ-(CH2)4)]K[Tic][Pro(3ξ,4ξ-(CH2)4)]F[Tic][Pro(3ξ,4ξ-(CH2)4)]K[Tic][Pro(3ξ,4ξ-(CH2)4)]F[Tic][Pro(3ξ,4ξ-(CH2)4)]K[Tic][Pro(3ξ,4ξ-(CH2)4)]KKKK-NH2) | > 100 | 50 (≈ 14.9 µM) | 100 (≈ 29.8 µM) | > 100 | 25 (≈ 7.45 µM) | > 100
100 (≈ 38.3 µM) | 50 (≈ 19.2 µM) | 6.25 (≈ 2.4 µM) | 50 (≈ 19.2 µM) | 6.25 (≈ 2.4 µM) | 50 (≈ 19.2 µM) | CC(=O)NCC(=O)N[C@@H](Cc1ccccc1)C(=O)N1Cc2ccccc2C[C@H]1C(=O)N1CC2CCCCC2[C@H]1C(=O)NCC(=O)N[C@@H](CCCNC(=N)N)C(=O)N1Cc2ccccc2C[C@H]1C(=O)N1CC2CCCCC2[C@H]1C(=O)NCC(=O)N[C@@H](Cc1ccccc1)C(=O)N1Cc2ccccc2C[C@H]1C(=O)N1CC2CCCCC2[C@H]1C(=O)NCC(=O)N[C@@H](CCCNC(=N)N)C(=O)N1Cc2ccccc2C[C@H]1C(=O)N[C@@H](CCCNC(=N)N)C(=O)N[C@@H](CCCNC(=N)N)C(=O)N[C@@H](CCCNC(=N)N)C(=O)N[C@@H](CCCNC(=N)N)C(N)=O (stereo partly drawn) (Ac-GF[Tic][Pro(3ξ,4ξ-(CH2)4)]GR[Tic][Pro(3ξ,4ξ-(CH2)4)]GF[Tic][Pro(3ξ,4ξ-(CH2)4)]GR[Tic]RRRR-NH2) | > 100 | > 100 | 12.5 (≈ 4.79 µM) | 50 (≈ 19.2 µM) | 25 (≈ 9.58 µM) | 100 (≈ 38.3 µM)
> 100 | > 100 | 12.5 (≈ 5.12 µM) | > 100 | 25 (≈ 10.2 µM) | 100 (≈ 41 µM) | CC(=O)N[C@@H](CCCCN)C(=O)N[C@@H](CCCCN)C(=O)N[C@@H](CCCCN)C(=O)N[C@@H](CCCCN)C(=O)NCC(=O)N[C@@H](Cc1ccccc1)C(=O)N1Cc2ccccc2C[C@H]1C(=O)N1CC2CCCCC2[C@H]1C(=O)NCC(=O)N[C@@H](CCCCN)C(=O)N1Cc2ccccc2C[C@H]1C(=O)N1CC2CCCCC2[C@H]1C(=O)NCC(=O)N[C@@H](Cc1ccccc1)C(=O)N1Cc2ccccc2C[C@H]1C(=O)N1CC2CCCCC2[C@H]1C(=O)NCC(=O)N[C@@H](CCCCN)C(=O)N1Cc2ccccc2C[C@H]1C(N)=O (stereo partly drawn) (Ac-KKKKGF[Tic][Pro(3ξ,4ξ-(CH2)4)]GK[Tic][Pro(3ξ,4ξ-(CH2)4)]GF[Tic][Pro(3ξ,4ξ-(CH2)4)]GK[Tic]-NH2) | > 100 | > 100 | 25 (≈ 10.2 µM) | > 100 | > 100 | 100 (≈ 41 µM)
